biological target: farnesyl transferase (Homo sapiens, UniProt P49354+P49356); experiment: Farnesyl transferase inhibition, [3H]-farnesylation of biotinylated K-ras C-terminal peptide (SPA assay); format: biochemical; conditions: In vitro inhibitory activity (K-Ras) IC50, K-Ras substrate; 60 min at 37° C.; mean of two IC50 values
Procedure: The farnesyl transferase activity was measured by the amount farnesylated of K-ras substrate or of substrate derived from the peptide corresponding to its C-terminal part, the farnesyl group being introduced by farnesyl pyrophosphate (FPP).
It was then brought into contact with PVT-streptavidin (Amersham)® beads and was quantified by proximity scintillation (SPA assay) between the tritium and the PVT beads, by virtue of the streptavidin/biotin interaction.
Experimentally, farnesyl transferase purified according to the appended protocol was diluted, for this assay, to a concentration such that a consumption of substrates of less than 30% was obtained.
The reaction, carried out in Optiplates 96° microtitration plates, was initiated by the enzyme and lasted sixty minutes at 37° C. It was stopped by addition of 150 μl of mixture of a blocking buffer at pH 4 composed of 0.2M H3 PO4, 1.5 mM MgCl2, 0.5% (w/v) BSA, 0.05% (w/v) sodium azide containing 200 μg of PVT-streptavidin beads.
After slow agitation for thirty minutes (in order to remove the chemiluminescence), the plates were read as [^3 H]CPM in a Top Count® (Packard) scintillation counter for microplates, where they were converted into [^3 H]DPM from a range of coloured agent attenuating the scintillation (quenching).
The percentages of inhibition were calculated with respect to an inhibitor-free control after subtraction from all the values of that of a blank which only contained the substrates and the buffer.
The IC50 values were calculated or measured, from the inhibitions obtained at nine different concentrations, with Enzfitter® or Grafit® software. The IC50 values which appear in the results are the mean of measurements and calculations of two IC50 values.

Compound	IC50 [nM]
COc1ccccc1CC(=O)N1C[C@H]2[C@@]3(c4ccc(C)cc4)CC[C@H](c4ccccc43)[C@@]2(C(=O)O)C1 (single isomer, unassigned) [Example 30, dextrorotatory enantiomer of (3aRS,4SR,9SR,9aRS)-4,9-ethano-2-[2-(2-methoxyphenyl)acetyl]-9-(4-methylphenyl)-2,3,3a,4,9,9a-hexahydro-1H-benzo[f]isoindole-3a-carboxylic Acid]	74
COc1ccccc1CC(=O)N1C[C@H]2[C@@]3(c4cccc(C)c4)CC[C@H](c4ccccc43)[C@@]2(C(=O)O)C1 (relative stereo) [Example 9, (3aRS,4SR,9SR,9aRS)-4,9-ethano-2-[(2-methoxyphenyl)acetyl]-9-(3-methylphenyl)-2,3,3a,4,9,9a-hexahydro-1H-benzo[f]isoindole-3a-carboxylic Acid]	55
COc1ccccc1CC(=O)N1C[C@H]2[C@@]3(c4ccc(F)cc4)CC[C@H](c4ccccc43)[C@@]2(C(=O)O)C1 (relative stereo) [Example 8, (3aRS,4SR,9SR,9aRS)-4,9-ethano-9-(4-fluorophenyl)-2-[(2-methoxyphenyl)acetyl]-2,3,3a,4,9,9a-hexahydro-1H-benzo[f]isoindole-3a-carboxylic Acid]	100

same assay, conditions: K-Ras substrate; 60 min at 37° C.; mean of two IC50 values; read-out: In vitro inhibitory activity (K-Ras) IC50

Compound	IC50 [nM]
COc1cccc([C@]23CC[C@H](c4ccccc42)[C@@]2(C(=O)O)CN(C(=O)Cc4ccccc4OC)C[C@@H]32)c1 (relative stereo) [Example 10, (3aRS,4SR,9SR,9aRS)-4,9-ethano-9-(3-methoxyphenyl)-2-[(2-methoxyphenyl)acetyl]-2,3,3a,4,9,9a-hexahydro-1H-benzo[f]isoindole-3a-carboxylic Acid]	160
C=C(C(=O)N1C[C@@H]2[C@]3(c4ccc(Cl)c(F)c4)CC[C@@H](c4ccccc43)[C@]2(C(=O)OC)C1)c1ccccc1OC (racemic) [Example 66, methyl (3aRS,4SR,9SR,9aRS)-9-(4-chloro-3-fluorophenyl)-4,9-ethano-2-[2-(2-methoxyphenyl)-propenoyl]-2,3,3a,4,9,9a-hexahydro-1H-benzo[f]isoindole-3a-carboxylate]	379
C=C(C(=O)N1C[C@@H]2[C@]3(c4ccc5ccccc5c4)CC[C@@H](c4ccccc43)[C@]2(C(=O)OC)C1)c1ccccc1OC (racemic) [Example 45, methyl (3aRS,4SR,9SR,9aRS)-4,9-ethano-2-[2-(2-methoxyphenyl)propenoyl]-9-(2-naphthyl)-2,3,3a,4,9,9a-hexahydro-1H-benzo[f]isoindole-3a-carboxylate]	181
C=C(C(=O)N1C[C@@H]2[C@]3(c4ccc(OC)cc4)CC[C@@H](c4ccccc43)[C@]2(C(=O)O)C1)c1ccccc1OC (racemic) [Example 74, (3aRS,4SR,9SR,9aRS)-4,9-ethano-9-(4-methoxyphenyl)-2-[2-(2-methoxyphenyl)propenoyl]-2,3,3a,4,9,9a-hexahydro-1H-benzo[f]isoindole-3a-carboxylic Acid]	48
C=C(C(=O)N1C[C@H]2[C@@]3(c4ccc(C)cc4)CC[C@H](c4ccccc43)[C@@]2(C(=O)NN2CCCCC2)C1)c1ccccc1OC (relative stereo) [Example 24, (3aRS,4SR,9SR,9aRS)-4,9-ethano-2-[2-(2-methoxyphenyl)propenoyl]-9-(4-methylphenyl)-2,3,3a,4,9,9a-hexahydro-1H-benzo[f]isoindole-3a-N',N'-pentamethylenecarbohydrazide]	84
C=C(C(=O)N1C[C@@H]2[C@]3(c4ccc5c(c4)CCO5)CC[C@@H](c4ccccc43)[C@]2(C(=O)O)C1)c1ccccc1OC (racemic) [Example 62, (3aRS,4SR,9SR,9aRS)-9-(2,3-dihydrobenzofuran-5-yl)-4,9-ethano-2-[2-(2-methoxyphenyl)propenoyl]-2,3,3a,4,9,9a-hexahydro-1H-benzo[f]isoindole-3a-carboxylic Acid]	36
C=C(C(=O)N1C[C@H]2[C@@]3(c4ccc(OC)cc4)CC[C@H](c4ccccc43)[C@@]2(C(=O)NNc2cccnc2)C1)c1ccccc1OC (relative stereo) [Example 79, (3aRS,4SR,9SR,9aRS)-4,9-ethano-9-(4-methoxyphenyl)-2-[2-(2-methoxyphenyl)propenoyl]-2,3,3a,4,9,9a-hexahydro-1H-benzo[f]isoindole-3a-N'-(3-pyridyl)carbohydrazide]	45
C=C(C(=O)N1C[C@@H]2[C@]3(c4ccccc4C)CC[C@@H](c4ccccc43)[C@]2(C(=O)O)C1)c1ccccc1OC (racemic) [Example 38, (3aRS,4SR,9SR,9aRS)-4,9-ethano-2-[2-(2-methoxyphenyl)propenoyl]-9-(2-methylphenyl)-2,3,3a,4,9,9a-hexahydro-1H-benzo[f]isoindole-3a-carboxylic Acid]	99

More lines, now with the values ahead:

IC50 [nM]	Compound
98	C=C(C(=O)N1C[C@@H]2[C@]3(c4ccc(C)c(C)c4)CC[C@@H](c4ccccc43)[C@]2(C(=O)O)C1)c1ccccc1OC (racemic) [Example 72, (3aRS,4SR,9SR,9aRS)-9-(3,4-dimethylphenyl)-4,9-ethano-2-[2-(2-methoxyphenyl)propenoyl]-2,3,3a,4,9,9a-hexahydro-1H-benzo[f]isoindole-3a-carboxylic Acid]
101	C=C(C(=O)N1C[C@@H]2[C@]3(c4ccc(Cl)c(F)c4)CC[C@@H](c4ccccc43)[C@]2(C(=O)O)C1)c1ccccc1OC (racemic) [Example 67, (3aRS,4SR,9SR,9aRS)-9-(4-chloro-3-fluorophenyl)-4,9-ethano-2-[2-(2-methoxyphenyl)propenoyl]-2,3,3a,4,9,9a-hexahydro-1H-benzo[f]isoindole-3a-carboxylic Acid]
< 19	C=C(C(=O)N1C[C@H]2[C@@]3(c4ccc(C)cc4)CC[C@H](c4c(OC)cccc43)[C@@]2(C(=O)O)C1)c1ccccc1OC (single isomer, unassigned) [Example 100, Dextrorotatory Enantiomer of (3aRS,4SR,9SR,9aRS)-4,9-ethano-5-methoxy-2-[2-(2-methoxyphenyl)propenoyl]-9-(4-methylphenyl)-2,3,3a,4,9,9a-hexahydro-1H-benzo[f]isoindole-3a-carboxylic Acid]
5	C=C(C(=O)N1C[C@@H]2[C@]3(c4cccc(Cl)c4)CC[C@@H](c4ccccc43)[C@]2(C(=O)O)C1)c1ccccc1OC (racemic) [Example 89, (3aRS,4SR,9SR,9aRS)-9-(3-chlorophenyl)-4,9-ethano-2-[2-(2-methoxyphenyl)propenoyl]-2,3,3a,4,9,9a-hexahydro-1H-benzo[f]isoindole-3a-carboxylic Acid]
< 20	C=C(C(=O)N1C[C@@H]2[C@]3(c4ccc5c(c4)CCO5)CC[C@@H](c4ccccc43)[C@]2(C(=O)NCc2cccnc2)C1)c1ccccc1OC (relative stereo) [Example 63, (3aRS,4SR,9SR,9aRS)-9-(2,3-dihydrobenzofuran-5-yl)-4,9-ethano-2-[2-(2-methoxyphenyl)propenoyl]-2,3,3a,4,9,9a-hexahydro-1H-benzo[f]isoindole-3a-N-(3-pyridylmethyl)carboxamide]
177	C=C(C(=O)N1C[C@@H]2[C@]3(c4ccc(C#N)cc4)CC[C@@H](c4ccccc43)[C@]2(C(=O)O)C1)c1ccccc1OC (racemic) [Example 95, (3aRS,4SR,9SR,9aRS)-9-(4-cyanophenyl)-4,9-ethano-2-[2-(2-methoxyphenyl)propenoyl]-2,3,3a,4,9,9a-hexahydro-1H-benzo[f]isoindole-3a-carboxylic Acid]
557	C=C(C(=O)N1C[C@H]2[C@@]3(c4ccc(N(C)C)cc4)CC[C@H](c4ccccc43)[C@@]2(C(=O)OC)C1)c1ccccc1OC (relative stereo) [Example 94, methyl (3aRS,4SR,9SR,9aRS)-9-(4-N,N-dimethylaminophenyl)-4,9-ethano-2-[2-(2-methoxyphenyl)propenoyl]-2,3,3a,4,9,9a-hexahydro-1H-benzo[f]-isoindole-3a-carboxylate]
183	C=C(C(=O)N1C[C@H]2[C@@]3(c4cccc(N(C)C)c4)CC[C@H](c4ccccc43)[C@@]2(C(=O)OC)C1)c1ccccc1OC (relative stereo) [Example 91, methyl (3aRS,4SR,9SR,9aRS)-9-(3-N,N-dimethylaminophenyl)-4,9-ethano-2-[2-(2-methoxyphenyl)propenoyl]-2,3,3a,4,9,9a-hexahydro-1H-benzo[f]isoindole-3a-carboxylate]
59	C=C(C(=O)N1C[C@@H]2[C@]3(c4ccc(Br)cc4)CC[C@@H](c4ccccc43)[C@]2(C(=O)O)C1)c1ccccc1OC (racemic) [Example 50, (3aRS,4SR,9SR,9aRS)-9-(4-bromophenyl)-4,9-ethano-2-[2-(2-methoxyphenyl)propenoyl]-2,3,3a,4,9,9a-hexahydro-1H-benzo[f]isoindole-3a-carboxylic Acid]
431	C=C(C(=O)N1C[C@@H]2[C@]3(c4cccc(C)c4)CC[C@@H](c4ccccc43)[C@]2(C(=O)OC)C1)c1ccccc1OC (racemic) [Example 68, methyl (3aRS,4SR,9SR,9aRS)-4,9-ethano-2-[2-(2-methoxyphenyl)propenoyl]-9-(3-methylphenyl)-2,3,3a,4,9,9a-hexahydro-1H-benzo[f]isoindole-3a-carboxylate]
